These results are taken from patent publication US20250213627A1, “RECOMBINANT MICROORGANISM-BASED METHODS AND COMPOSITIONS FOR TREATMENT OF DISEASE” (Baylor College of Medicine, priority 2021, published 2025).

In data set [1] the test system is collagen-induced arthritis (CIA) in Lewis rats. In words: Collagen-induced arthritis (CIA) treatment trial. The data set is classed as in vivo, rat. As for the experimental part:
Starting at onset of clinical signs, four groups of rats received ˜1×10^9 CFU of either LrGusA or LrS235, both after SppIP induction for 2.5 hr, by daily oral gavage, or P6N vehicle or synthetic ShK-235 by injection in the scruff of the neck every other day.
Induction, monitoring, randomization, and treatment of rat collagen-induced arthritis. CIA was induced as described previously (46, 50). Briefly, female Lewis rats received a subcutaneous injection of 200 μl of a 1:1 emulsion of 2 mg/ml porcine type II collagen (20031, Chondrex, Redmond, WA) with incomplete Freund's adjuvant at the base of the tail. After 7 days, rats were given a booster of 100 μl of collagen and adjuvant emulsion. Disease onset was defined as the development of at least one swollen or red paw joint. Clinical scores were determined daily by assigning 1 point for each swollen or red toe joint, 2 points for mildly swollen wrist or ankle joints, and 5 points for each severely swollen wrist or ankle, giving each rat a maximum possible score of 60. Upon disease onset, rats were treated every other day by the subcutaneous injection of P6N buffer vehicle or 0.1 mg/kg ShK-235, or the oral gavage of 1×10^9 cfus LrGusA or 1×10^9 cfus LrS235 daily. CIA is more severe in rats with early disease onset. To avoid biasing results based on disease severity on the day each rat developed signs of disease and accounting for differences in the time between immunization and when a rat developed signs of illness, every rat that developed signs of disease on a given day was placed in a different treatment group to fill all groups in parallel.
Histology and micro-CT. Healthy rats and rats from the CIA trials were euthanized after 21 days of treatment, and their hind paws were collected and fixed in 10% buffered formalin. One paw from each rat was imaged by Micro-CT using a Bruker SkyScan 1272 Scanner set at 13 μm resolution with no filtering, no averaging, and a rotation step of 0.3. Raw images were analyzed with CTvox (Bruker, MA, US). The other hind paw was decalcified, embedded in paraffin, and sectioned. Slides were stained with either hematoxylin and eosin or Safranin O/Fast green and imaged at 4× magnification on a Nikon Ci-L bright-field microscope (Nikon Inc. NY, US). Scoring of the slides was completed by an investigator blinded to treatment groups using a comprehensive histological scoring system as described elsewhere (46, 51), in which cartilage degradation, cartilage erosion, angiogenesis, pannus formation, synovial hyperplasia, and synovial inflammation were evaluated by the following criteria: 0=absent, 1=mild, 2=moderate, 3=severe. The data were presented as mean±standard deviation.

A further data set concerns the target Kv1.3 (Mus musculus, UniProt P16390). In words: Block of Kv1.3 channel, reported potency. The class given is cell-based. To be noted: FIGS. 5A-5B; n=4 cells per concentration.
A short description of data set [2]: Thermal stability of peptide.
Data set [3] concerns DTH reaction mediated by antigen-specific TEM lymphocytes. Kind of data set: Active delayed-type hypersensitivity (DTH) reaction against ovalbumin in the ear. The data set is classed as in vivo, rat. Here is the method:
Then, it was assessed if LrS235 gavage could reduce a delayed-type hypersensitivity (DTH) reaction in the ear of rats, a local autoinflammation mediated by antigen-specific TEM lymphocytes. […] In contrast, treatment with LrGusA, capsules filled with ShK-235 or gelatin, and supernatants from the culture of the LrS235 had no effects on inflammation.
Induction and monitoring of an active delayed-type hypersensitivity reaction. Male and female rats were immunized in the flanks with 200 μl of a 1:1 emulsion of ovalbumin (Sigma, St. Louis, MO) in complete Freund's adjuvant (Difco/Becton Dickinson, Franklin Lakes, NJ)(25). After 7 days, under isoflurane anesthesia, the rats were challenged with ovalbumin dissolved in saline in the pinna of one ear; the collateral ear was injected with saline (49). Rats received either a single subcutaneous injection of 0.1 mg/kg ShK-235 or P6N vehicle, a single oral gavage of 1×10^9 cfus LrS235 or LrGusA, oral gavage of 1 ml supernatant of LrS235, or a capsule filled with ShK-235 or gelatin immediately before the ear challenge. The DTH reaction was measured 24 hours post-challenge as the thickness of the ear using a spring-loaded micrometer (Mitutoyo, Japan) and ear inflammation was determined by comparing the ear thickness of the ovalbumin-challenged with the saline-challenged ear from each (49). The animals were euthanized after the ear measurements.

The next data set concerns anti-ShK-235 IgG. Kind of data set: Immunogenicity ELISA on sera of CIA rats. The class given is in vivo, rat. Particulars: sera at end of 21-day CIA trial. Here is the method: (§1) To test if ShK-235 produced by LrS235 is immunogenic, the sera of rats were assessed at the end of the 21-day CIA trial shown in FIG. 8 for anti-ShK-235 IgG by ELISA assay. Plates coated with collagen II and HsTX1[R14A] were used as controls. HsTX1[R14A] is another peptide blocker of Kv1.3 with no sequence or structural homology to ShK-235.
Immunogenicity assays in rats with CIA. High-protein binding 96-well microplates (3855, ThermoFisher, MA, US) were coated overnight with 10 μg/ml of either porcine collagen II (20031, Chondrex, Woodinville, WI), ShK-235, or HsTX1[R14A], dissolved in PBS. Non-specific binding sites were blocked with PBS+5% skimmed milk and washed with PBS+0.05% Tween 20 before adding serum from the CIA rats, diluted in PBS. After washes, anti-rat IgG antibodies conjugated to horseradish peroxidase (1 μg/ml; Pierce catalog 31471, lot UA280036) were added to all the wells. One-step TMB-ELISA (34028, ThermoFisher, MA, US) was used to detect absorbance on a plate reader at 650 nm.

In another data set the test system is human and rat TEM cells. To be noted: cited from earlier work.
Data set [4] relates to ShK-235 neutralizing antibodies. In words: Antibody neutralization assay with CIA rat serum. To be noted: CIA rat serum samples. The data set is classed as cell-based. Here is the method:
as §1
Antibody neutralization assays. […] It was then added to the PBMCs loaded with CELLTRACE™ Violet (C34557, ThermoFisher, MA, US), and T cells proliferation was assessed as described above.

Molecules are shown by their SMILES. Entries after “also recorded” stand apart in the source; their conditions may differ.

Chain of Kv1.3 (P16390 whole entry): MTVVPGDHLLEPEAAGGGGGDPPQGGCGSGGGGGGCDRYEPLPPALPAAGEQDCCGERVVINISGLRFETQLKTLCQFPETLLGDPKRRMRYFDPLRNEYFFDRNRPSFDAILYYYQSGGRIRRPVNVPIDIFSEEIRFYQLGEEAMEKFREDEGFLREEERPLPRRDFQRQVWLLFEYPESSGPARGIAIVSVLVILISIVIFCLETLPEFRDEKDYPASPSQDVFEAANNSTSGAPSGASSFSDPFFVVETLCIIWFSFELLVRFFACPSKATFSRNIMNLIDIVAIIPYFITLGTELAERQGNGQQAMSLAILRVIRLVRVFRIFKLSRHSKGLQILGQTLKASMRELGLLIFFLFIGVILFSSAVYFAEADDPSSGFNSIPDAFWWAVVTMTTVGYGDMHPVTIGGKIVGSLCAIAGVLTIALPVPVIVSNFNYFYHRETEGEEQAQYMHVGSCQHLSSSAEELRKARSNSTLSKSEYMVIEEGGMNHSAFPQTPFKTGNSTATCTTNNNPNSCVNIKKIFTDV

In the case of `CC[C@H](C)[C@@H]1NC(=O)[C@H](CO)NC(=O)[C@H](Cc2c[nH]cn2)NC(=O)[C@H](CCCCN)NC(=O)[C@@H]2CSSC[C@@H]3NC(=O)[C@H]([C@@H](C)O)NC(=O)[C@H](CCCCN)NC(=O)[C@H](CCCNC(=N)N)NC(=O)[C@H](CSSC[C@H](NC(=O)[C@H](CCCNC(=N)N)NC(=O)[C@H](CO)NC(=O)[C@H](CCCCN)NC(=O)[C@@H]4CCCN4C(=O)[C@H]([C@@H](C)CC)NC(=O)[C@H]([C@@H](C)O)NC(=O)[C@H](CC(=O)O)NC(=O)[C@H]([C@@H](C)CC)NC(=O)[C@@H](NC(=O)[C@H](CO)NC(=O)[C@@H](N)CCCNC(=N)N)CSSC[C@@H](C(=O)N[C@@H](C)C(=O)O)NC(=O)[C@H]([C@@H](C)O)NC(=O)CNC3=O)C(=O)N[C@@H]([C@@H](C)O)C(=O)N[C@@H](C)C(=O)N[C@@H](Cc3ccccc3)C(=O)N[C@@H](CCCCN)C(=O)N2)NC(=O)[C@H](Cc2ccccc2)NC(=O)[C@H](CO)NC(=O)[C@H](CC(C)C)NC(=O)[C@H](CCCNC(=N)N)NC(=O)[C@H](Cc2ccc(O)cc2)NC(=O)[C@H](CCCCN)NC1=O` [ShK-235], in data set [1] (21 days from onset, bacteria ~1×10^9 CFU daily oral gavage, synthetic ShK-235 0.1 mg/kg s.c. every other day, max score 60), the “Mean clinical score of arthritis” value was 11±3. Further, in data set [1] (end of trial), the “Joint histology parameters (cartilage degradation and erosion, angiogenesis, pannus, synovial hyperplasia and inflammation)” value is “significantly reduced all parameters”; the “Micro-CT imaging of hind limbs (bone erosion)” value was “better-preserved bones”. Further, in data set [1] (same regimens as mean score), the “Reduction of mean clinical score compared to vehicle control” value is around 60%. Further, half-maximal inhibition on Kv1.3 (IC50) was put at 0.062 nM. For the same compound, the Temperature stability entry in data set [2] was “up to 80 °C”. Also, in data set [3] (oral enteric-coated capsule filled with ShK-235), the “Effect on ear inflammation” value is “no effects”. Moreover, the “Reduction of ear inflammation compared with vehicle control” value in data set [3] (single subcutaneous injection 0.1 mg/kg) stood at 58%. The “Anti-ShK-235 IgG titers / immunogenicity” value with anti-ShK-235 IgG was “very low titers; also recorded: not immunogenic”. Besides, in the data set on human and rat TEM cells, the “Effect on activation and function of human and rat naïve and TCM cells” value was “little to no effect”; the “Inhibition of activation of human and rat TEM cells” value is “preferentially inhibits”. The “Neutralization of ShK-235 by serum” value in data set [4] is “no neutralization”.
